Reference: patent US20050054696A1, “Indole compounds and medicinal use thereof” (priority 2001, published 2005)

Molecular target: T1, recombinant human liver glycogen phosphorylase (HLGPa) (Homo sapiens, UniProt P06737)
T1 construct: made in house; host or cells: Sf9 insect cells (unpurified cell lysate used as enzyme solution)
T1 sequence (P06737 1-847): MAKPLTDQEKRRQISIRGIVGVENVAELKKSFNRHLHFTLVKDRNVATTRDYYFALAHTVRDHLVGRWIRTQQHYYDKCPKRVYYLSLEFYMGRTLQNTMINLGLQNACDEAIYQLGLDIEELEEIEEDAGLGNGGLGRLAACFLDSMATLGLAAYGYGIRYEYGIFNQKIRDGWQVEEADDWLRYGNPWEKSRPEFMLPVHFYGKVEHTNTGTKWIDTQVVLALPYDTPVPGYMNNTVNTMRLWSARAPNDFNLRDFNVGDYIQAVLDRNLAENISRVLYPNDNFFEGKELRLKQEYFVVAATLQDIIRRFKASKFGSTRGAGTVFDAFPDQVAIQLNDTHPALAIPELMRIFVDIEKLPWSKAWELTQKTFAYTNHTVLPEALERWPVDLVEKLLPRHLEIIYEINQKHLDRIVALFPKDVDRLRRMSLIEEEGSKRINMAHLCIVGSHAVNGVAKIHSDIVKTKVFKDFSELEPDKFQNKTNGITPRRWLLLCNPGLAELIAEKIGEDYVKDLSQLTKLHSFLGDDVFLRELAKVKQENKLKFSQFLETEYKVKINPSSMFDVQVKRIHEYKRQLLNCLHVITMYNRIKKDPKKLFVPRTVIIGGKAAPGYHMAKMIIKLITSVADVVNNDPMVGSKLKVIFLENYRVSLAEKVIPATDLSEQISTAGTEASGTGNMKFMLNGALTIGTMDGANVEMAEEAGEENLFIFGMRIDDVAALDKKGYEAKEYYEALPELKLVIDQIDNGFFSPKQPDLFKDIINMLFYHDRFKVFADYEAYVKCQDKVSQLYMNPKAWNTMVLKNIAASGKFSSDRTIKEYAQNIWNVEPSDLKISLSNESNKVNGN
Assay: Measurement of liver glycogen phosphorylase activity (enzyme inhibitory activity against HLGPa)
Type: biochemical
Conditions: Sf9 cell lysate expressing recombinant enzyme; reverse reaction (glycogen synthesis from G1-P), phosphate by malachite green, 60 min room temperature
Method in brief: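 Activity was run in the reverse, glycogen-synthesis direction, using Sf9 lysate expressing recombinant human liver glycogen phosphorylase (enzyme solution 80 μg/mL protein, pH 7.0). Substrate solution was Tris pH 7.2 with 1.25 mM glucose-1-phosphate, 2.5 mg/ml glycogen and 7.5 mM glucose, reacted 60 min at room temperature. Released phosphate was measured by malachite green A650, with % inhibition taken against DMSO control and no-enzyme blank.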

Structure (SMILES) | IC50
O=C(NNC(=O)c1ccc(Cl)cc1Cl)c1cc2cc(Cl)ccc2[nH]1 [Example 1-24, 2,4-dichlorobenzoic acid 2-(5-chloro-1H-indole-2-carbonyl)hydrazide] | 170 nM
O=C(NNC(=O)c1cc2cc(Cl)ccc2[nH]1)c1ccc(-c2nnn[nH]2)cc1 [Example 1-59, 4-(1H-tetrazol-5-yl)benzoic acid 2-(5-chloro-1H-indole-2-carbonyl)hydrazide] | > 100 nM
O=C(NNC(=O)c1cc2cc(Cl)ccc2[nH]1)Nc1ccc(F)cc1 [Example 5-7, 5-chloro-1H-indole-2-carboxylic acid 2-((4-fluorophenyl)aminocarbonyl)hydrazide] | 88 nM
COc1ccc2[nH]c(=O)n(NC(=O)c3cc4cc(C)ccc4[nH]3)c(=O)c2c1 [Example 2-27, 5-methyl-1H-indole-2-carboxylic acid (1,2,3,4-tetrahydro-6-methoxy-2,4-dioxoquinazolin-3-yl)amide] | 300 nM
O=C(NN1C(=O)NC(c2ccccc2F)C1=O)c1cc2cc(Cl)ccc2[nH]1 (stereo not drawn) [Example 4-14, 5-chloro-1H-indole-2-carboxylic acid (2,5-dioxo-4-(2-fluorophenyl)imidazolidin-1-yl)amide] | 110 nM
N[C@H](C(=O)NNC(=O)c1cc2cc(Cl)ccc2[nH]1)c1ccccc1 [Example 5-18, 5-chloro-1H-indole-2-carboxylic acid 2-((2S)-2-amino-2-phenylacetyl)hydrazide] | > 100 nM
O=C(NN1CN(c2ccccc2)CC1=O)c1cc2cc(Cl)ccc2[nH]1 [Example 4-4, N-(1-oxo-4-phenylimidazolidin-2-yl)-5-chloro-1H-indole-2-carboxamide] | > 100 nM
O=C(NN1C(=O)CCN(c2ccc(Cl)cc2)C1=O)c1cc2cc(Cl)ccc2[nH]1 [Example 3-14, 5-chloro-1H-indole-2-carboxylic acid (1-(4-chlorophenyl)-2,4-dioxoperhydropyrimidin-3-yl)amide] | 120 nM
COC(=O)Nc1ccccc1C(=O)NNC(=O)c1cc2cc(F)ccc2[nH]1 [Example 1-105, methyl (2-(2-(5-fluoro-1H-indole-2-carbonyl)hydrazinocarbonyl)phenyl)carbamate] | 87 nM
CN(C)C(=O)Oc1ccccc1C(=O)NNC(=O)c1cc2cc(Cl)ccc2[nH]1 [Example 1-65, 2-(2-(5-chloro-1H-indole-2-carbonyl)hydrazinocarbonyl)phenyl dimethylcarbamate] | > 100 nM
O=C(NNC(=O)c1cc2cc(Cl)ccc2[nH]1)c1ccc[nH]1 [Example 1-80, 1H-pyrrole-2-carboxylic acid 2-(5-chloro-1H-indole-2-carbonyl)hydrazide] | 400 nM
O=C(NN1C(=O)[C@H]2CCCN2C1=O)c1cc2cc(Cl)ccc2[nH]1 [Example 4-8, 5-chloro-1H-indole-2-carboxylic acid ((4R)-1,3-dioxo-perhydropyrrolo[1,2-c]imidazol-2-yl)amide] | > 100 nM
CN(NC(=O)c1cc2cc(Cl)ccc2[nH]1)C(=O)Nc1ccccc1 [Example 5-8, 5-chloro-1H-indole-2-carboxylic acid 2-(anilinocarbonyl)-2-methylhydrazide] | > 100 nM
O=C(Nn1c(=O)[nH]c2ccccc2c1=O)c1cc2cc(F)ccc2[nH]1 [Example 2-11, 5-fluoro-1H-indole-2-carboxylic acid (1,2,3,4-tetrahydro-2,4-dioxoquinazolin-3-yl)amide] | > 100 nM
O=C(NNC(=O)C1(c2ccccc2)CCCCC1)c1cc2cc(Cl)ccc2[nH]1 [Example 5-14, 5-chloro-1H-indole-2-carboxylic acid 2-((1-phenylcyclohexane)carbonyl)hydrazide] | 300 nM
Cc1ccc2[nH]c(C(=O)NN3C(=O)CCN(c4ccccc4)C3=O)cc2c1 [Example 3-10, 5-methyl-1H-indole-2-carboxylic acid (2,4-dioxo-1-phenyl-perhydropyrimidin-3-yl)amide] | 440 nM
COC(=O)COc1ccccc1C(=O)NNC(=O)c1cc2cc(Cl)ccc2[nH]1 [Example 1-49, 2-(2-(2-(5-chloro-1H-indole-2-carbonyl)hydrazinocarbonyl)phenoxy)acetic acid methyl ester] | 150 nM
O=C(O)Cn1c(=O)n(NC(=O)c2cc3cc(Cl)ccc3[nH]2)c(=O)c2ccccc21 [Example 2-21, 2-(3-((5-chloro-1H-indole-2-carbonyl)amino)-1,2,3,4-tetrahydro-2,4-dioxoquinazolin-1-yl)acetic acid] | > 100 nM
N=C(NNC(=O)c1cc2cc(Cl)ccc2[nH]1)c1ccccn1 [Example 1-136, 5-chloro-1H-indole-2-carboxylic acid 2-(imino-(pyridin-2-yl)-methyl)hydrazide] | 270 nM

The next compounds have a lower IC50 than those just listed; values first:

IC50 | Structure (SMILES)
84 nM | CS(=O)(=O)O.N=C(Cc1ccccc1)NNC(=O)c1cc2cc(Cl)ccc2[nH]1 [Example 6-21, 5-chloro-1H-indole-2-carboxylic acid 2-((1-imino-2-phenylethyl)hydrazide methanesulfonate]
79 nM | O=C(NNC(=O)c1cc2cc(Cl)ccc2[nH]1)Nc1ccccc1F [Example 5-5, 5-chloro-1H-indole-2-carboxylic acid 2-((2-fluorophenyl)aminocarbonyl)hydrazide]
72 nM | O=C(NNC(=O)c1cccs1)c1cc2cc(F)ccc2[nH]1 [Example 1-11, thiophene-2-carboxylic acid 2-(5-fluoro-1H-indole-2-carbonyl)hydrazide]
72 nM | Cc1ccccc1C(=O)NNC(=O)c1cc2cc(Cl)ccc2[nH]1 [Example 1-13, 2-methylbenzoic acid 2-(5-chloro-1H-indole-2-carbonyl)hydrazide]
63 nM | CC(C(=O)NNC(=O)c1cc2cc(Cl)ccc2[nH]1)c1ccccc1 (stereo not drawn) [Example 5-15, 5-chloro-1H-indole-2-carboxylic acid 2-(2-phenylpropanoyl)hydrazide]
59 nM | Cc1ccc(C(=N)NNC(=O)c2cc3cc(Cl)ccc3[nH]2)cc1 [Example 1-129, 5-chloro-1H-indole-2-carboxylic acid 2-(imino-(p-tolyl)-methyl)hydrazide]
47 nM | O=C(NNC(=O)c1ccccc1-c1ccccc1)c1cc2cc(Cl)ccc2[nH]1 [Example 1-27, biphenyl-2-carboxylic acid 2-(5-chloro-1H-indole-2-carbonyl)hydrazide]
35 nM | O=C(NNC(=O)c1cc2cc(Cl)ccc2[nH]1)c1cccc(Cl)c1 [Example 1-20, 3-chlorobenzoic acid 2-(5-chloro-1H-indole-2-carbonyl)hydrazide]
30 nM | Nc1cc(Cl)ccc1C(=O)NNC(=O)c1cc2cc(Cl)ccc2[nH]1 [Example 1-54, 2-amino-4-chlorobenzoic acid 2-(5-chloro-1H-indole-2-carbonyl)hydrazide]
30 nM | Nc1ccc(Cl)cc1C(=O)NNC(=O)c1cc2cc(Cl)ccc2[nH]1 [Example 1-57, 2-amino-5-chlorobenzoic acid 2-(5-chloro-1H-indole-2-carbonyl)hydrazide]
22 nM | O=C(Nn1c(=O)[nH]c2c(Cl)cccc2c1=O)c1cc2cc(Cl)ccc2[nH]1 [Example 2-20, 5-chloro-1H-indole-2-carboxylic acid (8-chloro-1,2,3,4-tetrahydro-2,4-dioxoquinazolin-3-yl)amide]
